# Where a name gives a salt, the structure may show the parent alone.
# What was measured:
# [1] = Pharmacokinetic study of oral and intravenously injected compounds in CD-1 mouse; assay type: in vivo
# Description: To assay the pharmacokinetics of oral and intravenously injected compounds in CD-1 mouse. The assay compound was mixed with 5% DMSO+95% (10% HP-β-CD) aqueous solution. The mixture was vortexed and sonicated to prepare a clear solution of 0.5 mg/mL (intravenous) or a clear solution of 3 mg/mL (oral). The clear solution was filtered by a microporous membrane for use. […] Whole blood was collected for a certain period of time, and prepared to obtain plasma. Drug concentration was analyzed by LC-MS/MS method, and pharmacokinetic parameters were calculated by Phoenix WinNonlin software (Pharsight, USA).
# [2] = PPB assay: recovery rate in the dialysis device (five species plasma); assay type: in vitro ADME; settings: CD-1 (mouse), Sprague-Dawley (rat), Beagle (dog), cynomolgus monkey, human
# Description: The protein binding rates of the compound in the plasma of CD-1 mouse, Sprague-Dawley rat, Beagle dog, cynomolgus monkey and human were determined by equilibrium dialysis method. The plasmas of the above-mentioned five species were formulated to plasma samples with a compound concentration of 2 μM. The plasma samples were placed in a 96-well rapid equilibrium dialysis device, and dialyzed against phosphate buffered saline at 37±1° C. for 4 h. In this assay, warfarin was used as a control compound. The concentrations of analytes in plasma and dialysis buffer were determined by LC-MS/MS mothed.
# [3] = system: xenograft tumor of human colon cancer GP2D; assay: Pharmacodynamics in vivo: Balb/c nude mouse subcutaneous xenograft of human colon cancer GP2D cells; settings: PO, BID*20, 20th day
# Description: A Balb/c nude mouse model of subcutaneously xenograft tumor of human colon cancer GP2D cell was established. 0.2 mL (2×10^6) of GP2D cells (Matrigel was added, and volume ratio was 1:1) were inoculated subcutaneously on the right back of each mouse. When the average tumor volume reached 149 mm^3, the administration was started by group, with 6 mice in each group. On the day of the assay, the animals were administered the corresponding drugs according to the corresponding groups. The first group G1 was set as a negative control group, which was given 5% DMSO+95%(10% HP-β-CD) alone by gavage administration. The second group G2 to the fourth group G4 were given compound 1 hydrochloride, and the dosage and protocol of administration were shown in Table 13.
# During the assay, the body weight of animals and the tumor size were measured twice a week. Meanwhile clinical symptoms of animals were observed and recorded every day. Each administration was referenced to the most recent body weight of animals.
# The length (a) and width (b) of a tumor were measured with a digital vernier caliper. The calculation formula of tumor volume (Tumor volume, TV) was: TV=a×b^2/2.
# [4] = male, CD-1, plasma, intravenous (IV), about 2 mg/kg
# [5] = male, CD-1, plasma, oral (PO), about 30 mg/kg
structure (smiles),measurement,setting,value
Cc1cc(N)c(F)c(C2Cc3nc(OC[C@@]45CCCN4C[C@H](F)C5)nc(N4CC5CCC(C4)N5)c3CO2)c1C(F)(F)F (stereo partly drawn) [Compound 1 hydrochloride],AUC(0-t),[1]; [4],0.353 µM·h
same,C0,[1]; [4],1400 nM
same,Vd,[1]; [4],148 L/kg
same,clearance,[1]; [4],106 mL/min/kg
same,half-life,[1]; [4],23.1 h
same,AUC(0-inf),[1]; [5],1.35 µM·h
same,Cmax,[1]; [5],228 nM
same,F,"[1]; oral (PO), about 30 mg/kg, oral bioavailability",25.5%
same,"recovery at 4 h, 2 μM",[2],82.4 to 110%
same,Tumor volume inhibition rate TGI (%),"[3]; G2, 3 mg/kg",19.4%
same,Tumor volume inhibition rate TGI (%),"[3]; G3, 10 mg/kg",53.9%
same,Tumor volume inhibition rate TGI (%),"[3]; G4, 30 mg/kg",83.7%

# Source: patent US20240327433A1, “PYRIMIDOPYRAN COMPOUND” (Medshine Discovery Inc., priority 2021, published 2024)
